According to PMC6120666 (The EMBO Journal, 2018):

Legend:
Assay in all cases: Drug affinity chromatography with c-ponatinib and LC-MS/MS (ponatinib interactome)
Type in all cases: binding
[1] = molecular target: T1, proteins of U2OS cell lysate (Homo sapiens, UniProt O95347); details: SMC2, Structural maintenance of chromosomes protein 2
T1 construct: Proteins enriched by c-ponatinib from U2OS cell lysate; endogenous in cells; host or cells: U2OS cell lysate
Summary of the method: (§1)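 U2OS cell lysate in NP-40 lysis buffer (2 mg protein per pulldown) was incubated with amine-derivatized NHS beads for 2 h at 4 °C. Bound proteins were washed, eluted with 100 mM formic acid, reduced, alkylated and trypsin-digested, then identified by nano-UPLC–MS/MS on Orbitrap instruments with a 60 min gradient.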

[2] = molecular target: T2, proteins of U2OS cell lysate (Homo sapiens, UniProt P62333); details: PSMC6, 26S protease regulatory subunit 10B
T2 construct: Proteins enriched by c-ponatinib from U2OS cell lysate; endogenous in cells; host or cells: U2OS cell lysate
Summary of the method: as §1

[3] = molecular target: T3, proteins of U2OS cell lysate (Homo sapiens, UniProt P29323); details: EPHB2, Ephrin type-B receptor 2
T3 construct: Proteins enriched by c-ponatinib from U2OS cell lysate; endogenous in cells; host or cells: U2OS cell lysate
Summary of the method: as §1

[4] = molecular target: T4, proteins of U2OS cell lysate (Homo sapiens, UniProt Q9UJZ1); details: STOML2, Stomatin-like protein 2, mitochondrial
T4 construct: Proteins enriched by c-ponatinib from U2OS cell lysate; endogenous in cells; host or cells: U2OS cell lysate
Summary of the method: as §1

[5] = molecular target: T5, proteins of U2OS cell lysate (Homo sapiens, UniProt P06576); details: ATP5B, ATP synthase subunit beta, mitochondrial
T5 construct: Proteins enriched by c-ponatinib from U2OS cell lysate; endogenous in cells; host or cells: U2OS cell lysate
Summary of the method: as §1

[6] = molecular target: T6, proteins of U2OS cell lysate (Homo sapiens, UniProt P08670); details: VIM, Vimentin
T6 construct: Proteins enriched by c-ponatinib from U2OS cell lysate; endogenous in cells; host or cells: U2OS cell lysate
T6 sequence (P08670 whole entry): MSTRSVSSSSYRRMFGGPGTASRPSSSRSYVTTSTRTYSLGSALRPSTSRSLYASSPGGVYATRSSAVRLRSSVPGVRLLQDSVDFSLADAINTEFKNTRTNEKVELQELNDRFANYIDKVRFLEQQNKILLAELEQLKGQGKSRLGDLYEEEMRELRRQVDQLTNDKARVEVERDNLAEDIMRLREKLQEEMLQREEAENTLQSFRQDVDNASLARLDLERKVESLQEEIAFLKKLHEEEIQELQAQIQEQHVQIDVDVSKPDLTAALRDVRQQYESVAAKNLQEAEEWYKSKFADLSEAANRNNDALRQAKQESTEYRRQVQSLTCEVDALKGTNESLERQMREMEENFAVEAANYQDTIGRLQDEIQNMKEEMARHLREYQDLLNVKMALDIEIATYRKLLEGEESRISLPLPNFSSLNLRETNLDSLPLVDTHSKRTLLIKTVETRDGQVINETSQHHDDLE
Summary of the method: as §1

[7] = molecular target: T7, proteins of U2OS cell lysate (Homo sapiens, UniProt P47897); details: QARS, Glutamine--tRNA ligase
T7 construct: Proteins enriched by c-ponatinib from U2OS cell lysate; endogenous in cells; host or cells: U2OS cell lysate
T7 sequence (P47897 whole entry): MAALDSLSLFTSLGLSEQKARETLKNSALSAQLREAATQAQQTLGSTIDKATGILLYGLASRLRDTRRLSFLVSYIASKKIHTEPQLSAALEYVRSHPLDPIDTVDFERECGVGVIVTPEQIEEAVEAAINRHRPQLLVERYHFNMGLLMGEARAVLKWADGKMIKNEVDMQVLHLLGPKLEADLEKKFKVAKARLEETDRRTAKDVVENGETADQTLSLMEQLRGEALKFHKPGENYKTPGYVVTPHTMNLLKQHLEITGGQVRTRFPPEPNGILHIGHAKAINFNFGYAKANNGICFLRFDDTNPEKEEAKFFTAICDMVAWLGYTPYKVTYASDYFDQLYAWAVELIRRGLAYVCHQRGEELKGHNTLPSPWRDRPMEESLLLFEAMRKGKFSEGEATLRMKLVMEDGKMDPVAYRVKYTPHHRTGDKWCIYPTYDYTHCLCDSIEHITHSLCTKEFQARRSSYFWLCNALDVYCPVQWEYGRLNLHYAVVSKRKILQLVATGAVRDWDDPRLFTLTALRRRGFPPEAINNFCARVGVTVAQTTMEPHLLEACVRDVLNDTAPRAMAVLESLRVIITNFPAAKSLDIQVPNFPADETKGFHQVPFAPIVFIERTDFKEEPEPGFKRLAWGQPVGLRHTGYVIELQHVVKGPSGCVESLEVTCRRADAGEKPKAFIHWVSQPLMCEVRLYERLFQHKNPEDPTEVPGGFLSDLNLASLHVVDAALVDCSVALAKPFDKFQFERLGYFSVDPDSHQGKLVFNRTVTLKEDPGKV
Summary of the method: as §1

[8] = molecular target: T8, proteins of U2OS cell lysate (Homo sapiens, UniProt P23246); details: SFPQ, Splicing factor, proline- and glutamine-rich
T8 construct: Proteins enriched by c-ponatinib from U2OS cell lysate; endogenous in cells; host or cells: U2OS cell lysate
Summary of the method: as §1

[9] = molecular target: T9, proteins of U2OS cell lysate (Homo sapiens, UniProt P17844); details: DDX5, Probable ATP-dependent RNA helicase DDX5
T9 construct: Proteins enriched by c-ponatinib from U2OS cell lysate; endogenous in cells; host or cells: U2OS cell lysate
Summary of the method: as §1

[10] = molecular target: T10, proteins of U2OS cell lysate (Homo sapiens, UniProt Q8WWI1); details: LMO7, LIM domain only protein 7
T10 construct: Proteins enriched by c-ponatinib from U2OS cell lysate; endogenous in cells; host or cells: U2OS cell lysate
Summary of the method: as §1

[11] = molecular target: T11, proteins of U2OS cell lysate (Homo sapiens, UniProt P62269); details: RPS18, 40S ribosomal protein S18
T11 construct: Proteins enriched by c-ponatinib from U2OS cell lysate; endogenous in cells; host or cells: U2OS cell lysate
Summary of the method: as §1

[12] = molecular target: T12, proteins of U2OS cell lysate (Homo sapiens, UniProt P35606); details: COPB2, Coatomer subunit beta
T12 construct: Proteins enriched by c-ponatinib from U2OS cell lysate; endogenous in cells; host or cells: U2OS cell lysate
T12 sequence (P35606 whole entry): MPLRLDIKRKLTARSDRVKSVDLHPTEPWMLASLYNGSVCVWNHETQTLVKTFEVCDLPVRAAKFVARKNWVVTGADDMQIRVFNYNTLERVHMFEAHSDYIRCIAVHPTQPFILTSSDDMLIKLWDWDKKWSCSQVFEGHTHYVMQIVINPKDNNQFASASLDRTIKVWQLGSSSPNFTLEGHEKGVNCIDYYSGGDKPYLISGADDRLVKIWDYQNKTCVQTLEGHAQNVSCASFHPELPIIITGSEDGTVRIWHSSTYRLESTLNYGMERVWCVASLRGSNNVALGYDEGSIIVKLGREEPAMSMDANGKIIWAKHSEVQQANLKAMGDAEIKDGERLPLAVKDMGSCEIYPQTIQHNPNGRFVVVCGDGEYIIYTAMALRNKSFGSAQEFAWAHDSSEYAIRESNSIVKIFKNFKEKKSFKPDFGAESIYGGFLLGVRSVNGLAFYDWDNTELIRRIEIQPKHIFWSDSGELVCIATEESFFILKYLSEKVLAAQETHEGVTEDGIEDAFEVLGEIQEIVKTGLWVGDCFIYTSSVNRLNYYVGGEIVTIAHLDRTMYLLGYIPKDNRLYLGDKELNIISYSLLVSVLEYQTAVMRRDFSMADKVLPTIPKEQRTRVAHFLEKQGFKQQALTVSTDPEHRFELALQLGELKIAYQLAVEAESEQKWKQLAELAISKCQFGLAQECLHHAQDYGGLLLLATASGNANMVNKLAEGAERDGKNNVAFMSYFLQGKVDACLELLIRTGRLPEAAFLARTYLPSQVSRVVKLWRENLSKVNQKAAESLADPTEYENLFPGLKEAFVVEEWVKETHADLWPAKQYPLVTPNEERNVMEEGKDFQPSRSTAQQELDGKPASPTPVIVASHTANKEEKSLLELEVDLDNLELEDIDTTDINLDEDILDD
Summary of the method: as §1

[13] = molecular target: T13, proteins of U2OS cell lysate (Homo sapiens, UniProt Q12851); details: MAP4K2, Mitogen-activated protein kinase kinase kinase kinase 2
T13 construct: Proteins enriched by c-ponatinib from U2OS cell lysate; endogenous in cells; host or cells: U2OS cell lysate
T13 sequence (Q12851 whole entry): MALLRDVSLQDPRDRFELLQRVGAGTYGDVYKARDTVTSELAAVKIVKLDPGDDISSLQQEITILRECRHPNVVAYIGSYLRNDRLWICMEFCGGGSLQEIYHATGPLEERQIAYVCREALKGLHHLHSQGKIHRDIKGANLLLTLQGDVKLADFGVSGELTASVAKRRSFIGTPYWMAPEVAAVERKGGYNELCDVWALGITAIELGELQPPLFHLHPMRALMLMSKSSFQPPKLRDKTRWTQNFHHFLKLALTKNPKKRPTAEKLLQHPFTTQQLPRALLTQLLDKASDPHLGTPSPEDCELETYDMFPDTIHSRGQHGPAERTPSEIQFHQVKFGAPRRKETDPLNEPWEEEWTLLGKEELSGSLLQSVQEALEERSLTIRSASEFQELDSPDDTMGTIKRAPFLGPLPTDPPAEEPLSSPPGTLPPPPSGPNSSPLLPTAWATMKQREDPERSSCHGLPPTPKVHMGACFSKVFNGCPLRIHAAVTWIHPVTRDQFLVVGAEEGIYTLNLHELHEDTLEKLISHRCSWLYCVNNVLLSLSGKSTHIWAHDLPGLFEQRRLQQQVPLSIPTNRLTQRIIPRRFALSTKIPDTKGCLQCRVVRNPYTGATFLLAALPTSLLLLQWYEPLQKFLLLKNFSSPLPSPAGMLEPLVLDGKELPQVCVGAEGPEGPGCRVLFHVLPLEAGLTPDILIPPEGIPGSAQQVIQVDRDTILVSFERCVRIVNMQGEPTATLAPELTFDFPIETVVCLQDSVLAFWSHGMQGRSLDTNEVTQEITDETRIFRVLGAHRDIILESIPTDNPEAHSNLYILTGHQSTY
Summary of the method: as §1

[14] = molecular target: T14, proteins of U2OS cell lysate (Homo sapiens, UniProt P16083); details: NQO2, Ribosyldihydronicotinamide dehydrogenase [quinone]
T14 construct: Proteins enriched by c-ponatinib from U2OS cell lysate; endogenous in cells; host or cells: U2OS cell lysate
T14 sequence (P16083 whole entry): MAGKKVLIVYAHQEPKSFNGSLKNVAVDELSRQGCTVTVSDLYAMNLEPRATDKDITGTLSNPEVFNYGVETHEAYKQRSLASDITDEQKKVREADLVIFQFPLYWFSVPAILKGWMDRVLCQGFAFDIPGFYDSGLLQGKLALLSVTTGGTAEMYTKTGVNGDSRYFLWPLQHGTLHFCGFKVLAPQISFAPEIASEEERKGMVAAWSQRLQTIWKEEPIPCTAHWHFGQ
Summary of the method: as §1

[15] = molecular target: T15, proteins of U2OS cell lysate (Homo sapiens, UniProt O43353); details: RIPK2, Receptor-interacting serine/threonine-protein kinase 2
T15 construct: Proteins enriched by c-ponatinib from U2OS cell lysate; endogenous in cells; host or cells: U2OS cell lysate
Summary of the method: as §1

[16] = molecular target: T16, proteins of U2OS cell lysate (Homo sapiens, UniProt P22234); details: PAICS, Multifunctional protein ADE2
T16 construct: Proteins enriched by c-ponatinib from U2OS cell lysate; endogenous in cells; host or cells: U2OS cell lysate
Summary of the method: as §1

[17] = molecular target: T17, proteins of U2OS cell lysate (Homo sapiens, UniProt Q9UHX1); details: captured protein PUF60, Rank 203
T17 construct: Proteins enriched by c-ponatinib from U2OS cell lysate; endogenous in cells; host or cells: U2OS cell lysate
T17 sequence (Q9UHX1 whole entry): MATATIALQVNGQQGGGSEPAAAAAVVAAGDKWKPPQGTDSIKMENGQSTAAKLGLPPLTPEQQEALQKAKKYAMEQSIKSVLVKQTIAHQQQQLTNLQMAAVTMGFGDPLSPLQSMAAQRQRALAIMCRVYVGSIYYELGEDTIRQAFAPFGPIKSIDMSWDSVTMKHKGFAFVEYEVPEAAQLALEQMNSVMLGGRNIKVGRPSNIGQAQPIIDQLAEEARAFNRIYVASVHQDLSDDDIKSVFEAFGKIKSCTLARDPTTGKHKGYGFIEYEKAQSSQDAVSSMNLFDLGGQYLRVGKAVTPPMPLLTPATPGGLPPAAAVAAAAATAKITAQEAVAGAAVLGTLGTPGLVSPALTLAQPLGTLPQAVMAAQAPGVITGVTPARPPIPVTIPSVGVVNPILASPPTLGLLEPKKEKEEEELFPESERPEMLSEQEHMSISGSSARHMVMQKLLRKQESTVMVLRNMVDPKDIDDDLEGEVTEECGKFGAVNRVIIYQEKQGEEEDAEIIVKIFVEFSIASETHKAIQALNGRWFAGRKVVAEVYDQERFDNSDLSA
Summary of the method: as §1

[18] = molecular target: T18, proteins of U2OS cell lysate (Homo sapiens, UniProt Q13200); details: captured protein PSMD2, Rank 205
T18 construct: Proteins enriched by c-ponatinib from U2OS cell lysate; endogenous in cells; host or cells: U2OS cell lysate
T18 sequence (Q13200 whole entry): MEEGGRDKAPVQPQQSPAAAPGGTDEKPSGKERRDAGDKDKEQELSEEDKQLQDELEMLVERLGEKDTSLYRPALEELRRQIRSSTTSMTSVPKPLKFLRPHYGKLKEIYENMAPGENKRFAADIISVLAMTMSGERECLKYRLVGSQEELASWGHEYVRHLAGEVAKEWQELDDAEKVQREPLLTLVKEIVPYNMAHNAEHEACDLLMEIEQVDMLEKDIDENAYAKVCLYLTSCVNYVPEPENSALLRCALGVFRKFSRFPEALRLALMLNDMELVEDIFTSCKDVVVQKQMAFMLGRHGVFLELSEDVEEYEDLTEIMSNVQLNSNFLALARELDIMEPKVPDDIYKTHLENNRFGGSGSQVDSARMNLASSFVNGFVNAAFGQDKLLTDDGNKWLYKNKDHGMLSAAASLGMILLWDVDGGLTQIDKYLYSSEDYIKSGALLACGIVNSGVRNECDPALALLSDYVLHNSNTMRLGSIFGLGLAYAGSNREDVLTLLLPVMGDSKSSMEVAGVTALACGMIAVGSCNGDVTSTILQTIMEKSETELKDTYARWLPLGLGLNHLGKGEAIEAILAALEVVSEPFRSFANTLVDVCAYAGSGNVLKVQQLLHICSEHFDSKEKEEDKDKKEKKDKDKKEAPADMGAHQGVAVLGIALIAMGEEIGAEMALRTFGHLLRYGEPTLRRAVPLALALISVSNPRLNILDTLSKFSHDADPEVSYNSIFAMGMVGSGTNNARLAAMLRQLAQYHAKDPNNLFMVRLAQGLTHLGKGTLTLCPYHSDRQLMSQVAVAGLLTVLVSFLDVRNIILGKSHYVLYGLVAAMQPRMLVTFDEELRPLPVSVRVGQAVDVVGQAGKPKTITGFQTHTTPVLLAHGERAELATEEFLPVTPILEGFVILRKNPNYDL
Summary of the method: as §1

[19] = molecular target: T19, proteins of U2OS cell lysate (Homo sapiens, UniProt P45880); details: captured protein VDAC2, Rank 163
T19 construct: Proteins enriched by c-ponatinib from U2OS cell lysate; endogenous in cells; host or cells: U2OS cell lysate
T19 sequence (P45880 whole entry): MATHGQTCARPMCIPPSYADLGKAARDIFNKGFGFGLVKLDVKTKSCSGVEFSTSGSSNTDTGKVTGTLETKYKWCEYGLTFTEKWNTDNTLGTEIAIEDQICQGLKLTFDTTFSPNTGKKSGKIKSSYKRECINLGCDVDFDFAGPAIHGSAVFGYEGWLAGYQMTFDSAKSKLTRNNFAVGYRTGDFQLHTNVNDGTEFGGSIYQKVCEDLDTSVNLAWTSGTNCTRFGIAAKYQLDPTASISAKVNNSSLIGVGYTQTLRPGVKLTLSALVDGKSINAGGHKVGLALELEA
Summary of the method: as §1

Compound | Average LFQ PON_WT [1] | Average LFQ PON_WT [2] | Average LFQ PON_WT [3] | Average LFQ PON_WT [4] | Average LFQ PON_WT [5] | Average LFQ PON_WT [6] | Average LFQ PON_WT [7] | Average LFQ PON_WT [8] | Average LFQ PON_WT [9] | Average LFQ PON_WT [10] | Average LFQ PON_WT [11] | Average LFQ PON_WT [12] | Average LFQ PON_WT [13] | Average LFQ PON_WT [14] | Average LFQ PON_WT [15] | Average LFQ PON_WT [16] | Average LFQ intensity [17] | Average LFQ intensity [18] | Average LFQ intensity [19]
Cc1ccc(C(=O)Nc2ccc(CN3CCN(C)CC3)c(C(F)(F)F)c2)cc1C#Cc1cnc2cccnn12 [PON] | 20.8973 | 21.4756 | 23.9034 | 26.1635 | 26.0565 | 26.7986 | 19.3053 | 20.8702 | 21.2715 | 20.1594 | 21.0717 | 21.0921 | 27.1188 | 24.6177 | 27.2483 | 21.2772 | – | – | –
Cc1ccc(C(=O)Nc2ccc(CN3CCN(CCCN)CC3)c(C(F)(F)F)c2)cc1C#Cc1cnc2cccnn12 [c-ponatinib, reference compound] | – | – | – | – | – | – | – | – | – | – | – | – | – | – | – | – | 21.804 | 21.768 | 22.3592
